# Results as given in patent US5055594A, “Fluorogenic trypotophanase substrates” (Becton, Dickinson and Company, priority 1990, dated 1991).
# Experiments:
# [1] = system: tryptophanase; experiment: Reaction of serine-AMC-carbamate with tryptophanase (fluorescence increase); format: biochemical; conditions: 1.19×10^-6 M substrate, pH 8.2, 100 μL of 5.0 mq/mL tryptophanase; excitation 365 nm
# Procedure: To a 1.19×10^-6 M solution of serine-AMC-carbamate dissolved in 100 mM potassium phosphate buffer, pH 8.2 was added 100 μL of a 5.0 mq/mL solution of tryptophanase. Fluorescence increase was measured at 440 nm, with excitation at 365 nm. Starting fluorescence of the serine-AMC-carbamate solution was 26 relative units. After addition of the enzyme, fluorescence at 440 nM increased at a rate of 97 units/minute. […] Fluorescence increase in the absence of enzyme was negligible.
# [2] = system: Citrobacter diversus; experiment: Determination of the indole reaction of microorganisms (substrate on cellulose disks, AMC release); format: cell-based; conditions: for FLUORESCENCE INCREASE (ng AMC/min): 3×10^8 cfu/ml, phosphate buffer pH 8.4 with toluene, ex 365 nm, em 440 nm
# Procedure: (§1) Aliquots of 20 microliters of a 0.5% solution of the substrate of Example I dissolved in dimethylsulfoxide were added to cellulose disks (catalog no. 740-E, Schleicher and Schuell, Inc. Keene, N.H.). The DMSO was removed by vacuum dessication. The dried disks were placed in the wells of a black polystyrene microwell tray. Four of the disks were each inoculated with 25 microliters of a suspension containing 3×10^8 colony forming units per ml of the known indole positive microorganisms Escherichia coli and Citrobacter diversus and the known indole negative microorganisms Klebsiella pneumoniae and Citrobacter freundii. The suspensions were made in phosphate buffer, pH 8.4, containing toluene at a concentration of 2 drops per 5 ml of buffer to permeabilize the bacteria. Four disks were inoculated with buffer alone to serve as controls. The disks were excited at 365 nm using a xenon lamp and fluorescence was measured at 1 minute intervals for 10 minutes at a wavelength of 440 nm using a Fluoroskan II (Flow Laboratories, McLean, Va. 22102) reader. Results from the four tubes for each organism were averaged and are expressed in the Table as nanograms of free AMC released per minute.
# [3] = system: Citrobacter freundii; experiment: as above; format: cell-based; conditions: for FLUORESCENCE INCREASE (ng AMC/min): 3×10^8 cfu/ml, phosphate buffer pH 8.4 with toluene, ex 365 nm, em 440 nm
# Procedure: as §1
# [4] = system: Escherichia coli; experiment: as above; format: cell-based; conditions: for FLUORESCENCE INCREASE (ng AMC/min): 3×10^8 cfu/ml, phosphate buffer pH 8.4 with toluene, ex 365 nm, em 440 nm
# Procedure: as §1
# [5] = system: Klebsiella pneumoniae; experiment: as above; format: cell-based
# Procedure: as §1
structure (smiles),measurement,setting,value
Cc1cc(=O)oc2cc(NC(=O)OC[C@H](N)C(=O)O)ccc12 [serine-AMC-carbamate],Rate of fluorescence increase at 440 nM after addition of the enzyme,[1],97 units/minute
same,Fluorescence increase compared with the control,"[2]; C. diversus (indole positive), versus buffer control",much larger fluorescence increases
same,FLUORESCENCE INCREASE (ng AMC/min),[2]; C. diversus strain 404,5.35 ng AMC/min
same,FLUORESCENCE INCREASE (ng AMC/min),[2]; C. diversus strain 2075,4.4 ng AMC/min
same,Fluorescence increase compared with the control,"[3]; C. freundii (indole negative), versus buffer control",about the same fluorescence increase as the control
same,FLUORESCENCE INCREASE (ng AMC/min),[3]; C. freundii strain 2027,0.8 ng AMC/min
same,FLUORESCENCE INCREASE (ng AMC/min),[3]; C. freundii strain 2058,0.45 ng AMC/min
same,Fluorescence increase compared with the control,"[4]; E. coli (indole positive), versus buffer control",much larger fluorescence increases
same,FLUORESCENCE INCREASE (ng AMC/min),[4]; E. coli strain 1W9901N1,1.53 ng AMC/min
same,FLUORESCENCE INCREASE (ng AMC/min),[4]; E. coli strain 2W0803N1,1.85 ng AMC/min
same,FLUORESCENCE INCREASE (ng AMC/min),[4]; E. coli strain 4H8162N1,1.6 ng AMC/min
same,FLUORESCENCE INCREASE (ng AMC/min),[4]; E. coli strain 7W0563N1,1.7 ng AMC/min
same,Fluorescence increase compared with the control,"[5]; K. pneumoniae (indole negative), versus buffer control",about the same fluorescence increase as the control
same,FLUORESCENCE INCREASE (ng AMC/min),"[5]; K. pneumoniae strain 6N3696N1, 3×10^8 cfu/ml, phosphate buffer pH 8.4 with toluene, ex 365 nm, em 440 nm",0.5 ng AMC/min
